The values that follow come from paper PMC5628579, “Potent mechanism-based sirtuin-2-selective inhibition by an in situ-generated occupant of the substrate-binding site, “selectivity pocket” and NAD^+-binding site” (Chemical Science, 2017).

What is called inhibition is the relative decrease from the control value, in per cent. As usually defined, the IC50 is the concentration that inhibits the measured activity by half. A higher IC50 goes with weaker potency.

Assay [1] deals with neuro-2a (N2a) cells. Description: Neurite outgrowth assay. The following applies: 72 h, vehicle 14.22 ± 2.9%. It counts as cell-based, mouse.
Assay [2] deals with T1, SIRT2 (Homo sapiens, UniProt Q8IXJ6).
T1 sequence (Q8IXJ6 1-389): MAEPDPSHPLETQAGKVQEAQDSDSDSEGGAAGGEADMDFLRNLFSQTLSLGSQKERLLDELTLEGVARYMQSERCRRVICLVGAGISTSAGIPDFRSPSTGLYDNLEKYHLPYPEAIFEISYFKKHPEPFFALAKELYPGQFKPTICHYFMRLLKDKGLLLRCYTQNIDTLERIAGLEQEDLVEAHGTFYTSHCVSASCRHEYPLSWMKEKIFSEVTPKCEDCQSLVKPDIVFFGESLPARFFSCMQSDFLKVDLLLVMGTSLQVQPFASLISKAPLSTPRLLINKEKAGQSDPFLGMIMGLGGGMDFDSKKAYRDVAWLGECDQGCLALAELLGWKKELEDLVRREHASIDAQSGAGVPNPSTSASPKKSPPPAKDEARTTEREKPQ
Description: SIRT2 substrate competition analysis and time-dependent inhibition. It counts as biochemical. Details: purchased Biomol / Enzo Life Sciences (Fluor de Lys kit AK-556) BML SE-251-0500. On the procedure:
added to the blank wells). […] Thereafter, […]
which three independent curves were generated. […]
added to the blank wells).
The results were plotted using GraFit 7.0.3.
SIRT2 substrate competition analysis for 36
The assay follows in general the same procedure reported for the SIRT2 assay (vide supra), except for the following changes: reaction time = 45 min; [NAD+] = 2 mM; [substrate] = 50, 80, 150, or […]
Mass spectrometric detection of the ADP-ribose conjugate
Reactions were conducted for 5 min at 37 °C in 5 μL containing 1.9 μM SIRT2 (SignalChem), 500 μM NAD+ or 6-AE-NAD+ (BIOLOG Life Science Institute), and 1 mM 36, as well as 40 mM sodium phosphate buffer (pH = 7.0), containing 240 mM NaCl, 120 mM imidazole, 0.08 mM PMSF, 0.2 mM DTT, 20% glycerol, and 2% DMSO. Controls were measured in the absence of compounds or the enzyme. The reaction mixtures were diluted with 5 μL of water and purified using ZipTip-μC18 (Millipore). The fraction eluted with 2 μL of 50% acetonitrile containing α-cyano-4-hydroxycinnamic acid at a concentration of 5 mg/mL was directly subjected to MALDI-TOF MS analysis. MALDI-TOF mass spectra were acquired on an AB SCIEX TOF/TOF™ 5800 (AB SCIEX) in reflectron […]

In assay [3] the target is T2, SIRT5 (Homo sapiens, UniProt Q9NXA8).
T2 sequence (Q9NXA8 37-310): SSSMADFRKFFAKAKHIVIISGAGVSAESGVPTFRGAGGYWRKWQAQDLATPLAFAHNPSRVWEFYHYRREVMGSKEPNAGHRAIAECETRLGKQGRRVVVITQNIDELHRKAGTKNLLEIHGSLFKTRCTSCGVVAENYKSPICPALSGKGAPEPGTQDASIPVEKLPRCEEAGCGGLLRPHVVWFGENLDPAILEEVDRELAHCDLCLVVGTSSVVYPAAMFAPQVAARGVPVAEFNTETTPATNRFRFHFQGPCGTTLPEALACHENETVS
Description: Fluor de Lys SIRT5 assay.

In assay [4] the target is T3, SIRT3 (Homo sapiens, UniProt Q9NTG7).
T3 sequence (Q9NTG7 1-399): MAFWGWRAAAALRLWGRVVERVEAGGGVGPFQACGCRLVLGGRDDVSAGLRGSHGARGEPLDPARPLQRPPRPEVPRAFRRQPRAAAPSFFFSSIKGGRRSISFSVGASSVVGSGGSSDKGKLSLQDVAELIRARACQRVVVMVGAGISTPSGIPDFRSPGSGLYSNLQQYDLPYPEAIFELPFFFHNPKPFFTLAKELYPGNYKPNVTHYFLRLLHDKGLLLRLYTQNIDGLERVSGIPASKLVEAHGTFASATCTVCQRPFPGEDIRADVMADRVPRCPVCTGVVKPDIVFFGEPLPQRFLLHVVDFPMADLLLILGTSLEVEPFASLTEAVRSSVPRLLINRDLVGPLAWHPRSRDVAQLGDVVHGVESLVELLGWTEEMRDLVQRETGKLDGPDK
Briefly: Fluor de Lys SIRT3 assay.

For the molecule `C[C@H](NC(=O)[C@H](CCCCNC(=S)CNC(=O)c1ccccc1Nc1cccc(OCCc2ccccc2)c1)NC(=O)OCc1ccccc1)C(N)=O` [Compound 36], the “percentage of differentiated cells” value in assay [1] (0.5 μM) was found to be 23.09 ± 3.21%; in assay [1] (1 μM), 25.73 ± 1.3%. Further, the “mode of SIRT2 inhibition (substrate competition analysis)” value in assay [2] (Lineweaver–Burk plot, NAD+ saturation) is listed as “competitive inhibition with the acetylated lysine substrate”. Besides, in assay [2] (incubation 0–120 min with SIRT2, acetylated substrate, NAD+), the “time dependence of SIRT2 inhibitory effect” value is given as “time-dependent”. The inhibition at 10 µM in assay [3] (read-out: % inhibition at 10 μM SIRT5) was found to be 4 ± 2.6%. For the same molecule, in assay [3] (read-out: % inhibition at 50 μM SIRT5), the inhibition at 50 µM turned out to be 10%. This molecule also returned a half-inhibitory concentration (IC50) in assay [4] of 9.49 ± 1.7 µM. The inhibition at 1 µM in assay [4] (read-out: % inhibition at 1 μM SIRT3) was 2 ± 1.8%.
